Data set [1] deals with PBMC. Put plainly: Concentration required to inhibit LPS-induced TNFalpha production in human peripheral blood mononuclear cells; n=3. Format: functional, cell-based.
A short description of data set [2]: Metabolic rate as a measure of compound stability in human liver microsomes. Format: ADME, Microsome. For orientation: Liver microsomes are vesicles of endoplasmic reticulum, rich in cytochrome P450 enzymes.
The nature of data set [3]: Clearance of compound in mice after intravenous administration. Format: ADME, organism-based. As to conditions: mouse, in vivo.
Data set [4] is described as follows: Metabolic rate as a measure of compound stability in rat liver microsomes. Format: ADME, Microsome.
The nature of data set [5]: Oral bioavailability of compound after administration of a solution dose in PEG400. Format: ADME, organism-based. The following applies: eutheria, in vivo.
The nature of data set [6]: In vitro permeability of compound into Caco-2 cells. Format: ADME, cell-based. As to conditions: human, read-out: Permeability. A general note: Caco-2 monolayers are a common model of the intestinal barrier.
The nature of data set [7]: Half-life of compound evaluated in mice after intravenous administration. Format: ADME, organism-based. The following applies: mouse, in vivo.
The test system of data set [8] is PHA-Ly. As to the kind of experiment: In vitro cytotoxic effect of compound (30 uM) on PHA blast cells compared to control after 24 hours of treatment. Format: functional, Homo sapiens.
In data set [9] the target is MAP kinase p38 (Homo sapiens, UniProt O15264+Q15759+Q16539+P53778). As to the kind of experiment: Binding affinity for human p38 MAP kinase expressed in Escherichia coli using [gamma-33P]ATP; n=4.
Data set [10] concerns the target Mitogen-activated protein kinase 14 (Homo sapiens, UniProt Q16539). Put plainly: Inhibitory concentration against p38 alpha.
The target of data set [11] is MAP kinase-activated protein kinase 2 (Homo sapiens, UniProt P49137). Put plainly: Inhibitory concentration against MK2.
Data set [12] deals with Glycogen synthase kinase-3 (Homo sapiens, UniProt P49840+P49841). As to the kind of experiment: Inhibitory concentration against GSK-3. Format: protein assay.
The target in data set [13] is Receptor tyrosine-protein kinase erbB-2 (Homo sapiens, UniProt P04626). As to the kind of experiment: Inhibitory concentration against HER2 (ErbB2).
In data set [14] the target is Inhibitor of NF-kappa-B kinase (IKK) (Homo sapiens, UniProt O14920+O15111+Q9Y6K9). As to the kind of experiment: Inhibitory concentration against IKK. Format: protein-complex assay.
For data set [15], the target named is Mitogen-activated protein kinase 1 (Homo sapiens, UniProt P28482). As to the kind of experiment: Inhibitory concentration against ERK.
Sequence of Mitogen-activated protein kinase 1 (P28482 whole entry): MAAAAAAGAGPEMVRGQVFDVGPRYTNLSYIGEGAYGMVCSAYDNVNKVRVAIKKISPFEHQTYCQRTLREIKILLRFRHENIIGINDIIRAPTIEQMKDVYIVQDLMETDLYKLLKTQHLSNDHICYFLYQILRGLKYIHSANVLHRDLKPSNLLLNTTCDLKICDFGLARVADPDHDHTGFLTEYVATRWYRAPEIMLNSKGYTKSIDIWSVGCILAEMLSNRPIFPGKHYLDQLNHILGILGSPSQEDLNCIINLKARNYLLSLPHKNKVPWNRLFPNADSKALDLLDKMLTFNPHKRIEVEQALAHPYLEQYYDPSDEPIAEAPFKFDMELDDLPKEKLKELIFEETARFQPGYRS
The target of data set [16] is Mitogen-activated protein kinase 12 (Homo sapiens, UniProt P53778). Put plainly: Inhibitory concentration against p38 gamma.
Data set [17] addresses Fibroblast growth factor receptor (Homo sapiens, UniProt P22607+P11362+P22455+P21802). Put plainly: Inhibitory concentration against FGF receptor. Format: protein assay.
Data set [18] addresses RAF proto-oncogene serine/threonine-protein kinase (Homo sapiens, UniProt P04049). As to the kind of experiment: Inhibitory concentration against Raf.
Data set [19] has as its target Tyrosine-protein kinase SYK (Homo sapiens, UniProt P43405). As to the kind of experiment: Inhibitory concentration against Syk.
For data set [20], the target named is Tyrosine-protein kinase JAK3 (Homo sapiens, UniProt P52333). Put plainly: Inhibitory concentration against JAK3.
Sequence of Tyrosine-protein kinase JAK3 (P52333 whole entry): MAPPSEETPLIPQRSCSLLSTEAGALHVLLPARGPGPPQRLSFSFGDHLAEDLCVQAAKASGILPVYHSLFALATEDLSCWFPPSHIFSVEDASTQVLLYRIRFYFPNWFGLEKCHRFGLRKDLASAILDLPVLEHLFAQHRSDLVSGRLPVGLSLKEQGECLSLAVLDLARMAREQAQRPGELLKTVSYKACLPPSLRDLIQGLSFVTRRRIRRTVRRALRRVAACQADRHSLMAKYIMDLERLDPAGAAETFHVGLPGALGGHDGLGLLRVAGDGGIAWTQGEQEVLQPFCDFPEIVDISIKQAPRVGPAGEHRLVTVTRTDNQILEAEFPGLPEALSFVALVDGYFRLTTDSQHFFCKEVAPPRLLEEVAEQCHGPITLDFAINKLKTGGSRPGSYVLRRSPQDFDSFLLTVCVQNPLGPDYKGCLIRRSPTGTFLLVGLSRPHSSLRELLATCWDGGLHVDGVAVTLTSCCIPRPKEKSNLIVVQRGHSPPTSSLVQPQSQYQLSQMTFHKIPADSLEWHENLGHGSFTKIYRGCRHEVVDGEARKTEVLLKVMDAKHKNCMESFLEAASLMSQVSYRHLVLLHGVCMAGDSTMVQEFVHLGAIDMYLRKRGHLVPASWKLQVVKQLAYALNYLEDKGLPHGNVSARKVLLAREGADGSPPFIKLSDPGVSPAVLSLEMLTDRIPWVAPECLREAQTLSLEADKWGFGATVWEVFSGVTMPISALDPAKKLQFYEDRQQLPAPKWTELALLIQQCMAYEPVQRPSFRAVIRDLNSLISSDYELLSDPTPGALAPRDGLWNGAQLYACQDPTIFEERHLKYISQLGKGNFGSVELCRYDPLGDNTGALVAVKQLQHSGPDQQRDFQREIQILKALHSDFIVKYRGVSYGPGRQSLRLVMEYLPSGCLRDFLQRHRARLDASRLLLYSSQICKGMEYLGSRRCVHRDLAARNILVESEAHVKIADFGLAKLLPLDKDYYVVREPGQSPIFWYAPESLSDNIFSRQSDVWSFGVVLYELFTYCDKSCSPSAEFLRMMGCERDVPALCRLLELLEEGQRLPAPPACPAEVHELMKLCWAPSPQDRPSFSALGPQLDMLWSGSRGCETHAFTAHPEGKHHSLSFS
For data set [21], the target named is Serine/threonine-protein kinase AKT (Homo sapiens, UniProt P31751+Q9Y243+P31749). Put plainly: Inhibitory concentration against Akt. Format: protein assay.
For data set [22], the target named is Hepatocyte growth factor receptor (Homo sapiens, UniProt P08581). Put plainly: Inhibitory concentration against Met.
Sequence of Hepatocyte growth factor receptor (P08581 whole entry): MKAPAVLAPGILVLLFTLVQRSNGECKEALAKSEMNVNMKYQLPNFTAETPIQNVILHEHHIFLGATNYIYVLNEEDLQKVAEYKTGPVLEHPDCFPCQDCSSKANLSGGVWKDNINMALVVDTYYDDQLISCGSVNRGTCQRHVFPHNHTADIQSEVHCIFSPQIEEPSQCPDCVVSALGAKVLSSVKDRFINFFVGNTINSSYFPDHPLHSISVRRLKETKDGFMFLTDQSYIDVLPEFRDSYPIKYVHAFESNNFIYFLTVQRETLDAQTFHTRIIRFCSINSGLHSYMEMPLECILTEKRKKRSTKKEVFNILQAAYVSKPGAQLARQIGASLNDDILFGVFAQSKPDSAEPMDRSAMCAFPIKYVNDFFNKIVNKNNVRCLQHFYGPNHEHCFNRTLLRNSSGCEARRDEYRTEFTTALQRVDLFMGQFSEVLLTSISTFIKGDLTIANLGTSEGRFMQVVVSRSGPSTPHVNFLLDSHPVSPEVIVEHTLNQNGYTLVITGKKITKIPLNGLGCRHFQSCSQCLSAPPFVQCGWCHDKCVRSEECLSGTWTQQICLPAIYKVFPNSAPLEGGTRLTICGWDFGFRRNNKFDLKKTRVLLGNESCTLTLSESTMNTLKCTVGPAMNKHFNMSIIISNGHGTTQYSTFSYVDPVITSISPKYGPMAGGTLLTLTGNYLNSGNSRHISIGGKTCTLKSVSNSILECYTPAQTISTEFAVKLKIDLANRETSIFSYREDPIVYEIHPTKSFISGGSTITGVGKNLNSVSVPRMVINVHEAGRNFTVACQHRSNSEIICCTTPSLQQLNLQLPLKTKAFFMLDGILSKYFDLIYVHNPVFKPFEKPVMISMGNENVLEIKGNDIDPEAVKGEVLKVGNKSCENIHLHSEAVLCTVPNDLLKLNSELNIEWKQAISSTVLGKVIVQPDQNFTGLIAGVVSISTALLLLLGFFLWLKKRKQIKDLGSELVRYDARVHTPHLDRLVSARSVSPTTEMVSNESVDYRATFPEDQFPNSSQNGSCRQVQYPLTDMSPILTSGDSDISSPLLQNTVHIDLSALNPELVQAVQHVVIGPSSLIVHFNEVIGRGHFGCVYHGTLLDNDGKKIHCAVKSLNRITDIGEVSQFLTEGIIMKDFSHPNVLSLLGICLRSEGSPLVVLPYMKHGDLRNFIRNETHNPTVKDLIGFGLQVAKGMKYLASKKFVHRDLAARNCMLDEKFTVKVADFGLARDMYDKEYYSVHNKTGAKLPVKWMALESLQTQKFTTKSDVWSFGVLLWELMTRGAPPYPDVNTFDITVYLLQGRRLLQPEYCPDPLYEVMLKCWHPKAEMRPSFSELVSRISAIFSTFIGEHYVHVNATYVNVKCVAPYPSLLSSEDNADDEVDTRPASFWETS
Data set [23] concerns the target Vascular endothelial growth factor receptor 2 (Homo sapiens, UniProt P35968). Put plainly: Inhibitory concentration against KDR.
For data set [24], the target named is Mitogen-activated protein kinase 13 (Homo sapiens, UniProt O15264). Put plainly: Inhibitory concentration against p38 delta.
Sequence of Mitogen-activated protein kinase 13 (O15264 whole entry): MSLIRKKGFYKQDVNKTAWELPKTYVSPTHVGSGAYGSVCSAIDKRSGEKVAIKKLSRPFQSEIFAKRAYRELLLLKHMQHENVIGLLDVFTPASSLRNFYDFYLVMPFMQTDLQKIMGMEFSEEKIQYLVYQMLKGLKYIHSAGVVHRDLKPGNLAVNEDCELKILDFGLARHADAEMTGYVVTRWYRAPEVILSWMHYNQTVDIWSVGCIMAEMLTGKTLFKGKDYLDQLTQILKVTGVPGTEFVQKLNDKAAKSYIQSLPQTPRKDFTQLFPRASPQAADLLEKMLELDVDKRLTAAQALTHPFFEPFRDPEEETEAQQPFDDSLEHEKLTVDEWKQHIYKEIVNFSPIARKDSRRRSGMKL
For data set [25], the target named is Tyrosine-protein kinase ITK/TSK (Homo sapiens, UniProt Q08881). Put plainly: Inhibitory concentration against Itk.
Data set [26] deals with Protein kinase C (PKC). As to the kind of experiment: Inhibitory concentration against PKC. Format: protein assay.
Data set [27] deals with cAMP-dependent protein kinase (PKA) (Homo sapiens, UniProt P22694+P17612+P22612). As to the kind of experiment: Inhibitory concentration against PKA. Format: protein assay.
Data set [28] concerns the target Cyclin-dependent kinase 2 (Homo sapiens, UniProt P24941). As to the kind of experiment: Inhibitory concentration against CDK2.
Data set [29] addresses Tyrosine-protein kinase Lck (Homo sapiens, UniProt P06239). Put plainly: Inhibitory concentration against Lck.
Data set [30] has as its target Insulin-like growth factor 1 receptor (Homo sapiens, UniProt P08069). As to the kind of experiment: Inhibitory concentration against IGF-IR.
Data set [31] concerns the target Dual specificity mitogen-activated protein kinase kinase 1 (Homo sapiens, UniProt Q02750). As to the kind of experiment: Inhibitory concentration against MEK.
The target in data set [32] is Mitogen-activated protein kinase 11 (Homo sapiens, UniProt Q15759). As to the kind of experiment: Inhibitory concentration against p38 beta.

Where only a bound is given, the exact number is not on record here.

Sequence of Insulin-like growth factor 1 receptor (P08069 31-736 limits assumed): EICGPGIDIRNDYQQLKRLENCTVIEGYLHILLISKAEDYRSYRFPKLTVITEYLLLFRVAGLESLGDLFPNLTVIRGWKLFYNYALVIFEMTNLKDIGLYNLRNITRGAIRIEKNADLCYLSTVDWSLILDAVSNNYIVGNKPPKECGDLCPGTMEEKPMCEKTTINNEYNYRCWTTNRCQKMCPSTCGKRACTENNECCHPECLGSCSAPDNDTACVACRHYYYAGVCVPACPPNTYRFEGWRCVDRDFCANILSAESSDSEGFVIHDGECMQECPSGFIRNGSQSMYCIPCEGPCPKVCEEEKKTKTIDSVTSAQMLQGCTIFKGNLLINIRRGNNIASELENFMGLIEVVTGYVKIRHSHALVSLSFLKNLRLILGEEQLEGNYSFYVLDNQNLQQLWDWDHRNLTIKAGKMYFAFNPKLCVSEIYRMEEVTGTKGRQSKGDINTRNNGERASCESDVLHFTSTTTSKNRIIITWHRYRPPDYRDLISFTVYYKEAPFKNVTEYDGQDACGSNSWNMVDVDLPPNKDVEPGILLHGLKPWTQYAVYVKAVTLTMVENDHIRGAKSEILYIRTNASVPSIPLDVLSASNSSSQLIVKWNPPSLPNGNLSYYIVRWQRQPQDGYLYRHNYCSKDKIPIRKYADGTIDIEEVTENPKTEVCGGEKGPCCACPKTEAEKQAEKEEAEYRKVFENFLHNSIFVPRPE
Sequence of Insulin-like growth factor 1 receptor (P08069 741-1367 limits assumed): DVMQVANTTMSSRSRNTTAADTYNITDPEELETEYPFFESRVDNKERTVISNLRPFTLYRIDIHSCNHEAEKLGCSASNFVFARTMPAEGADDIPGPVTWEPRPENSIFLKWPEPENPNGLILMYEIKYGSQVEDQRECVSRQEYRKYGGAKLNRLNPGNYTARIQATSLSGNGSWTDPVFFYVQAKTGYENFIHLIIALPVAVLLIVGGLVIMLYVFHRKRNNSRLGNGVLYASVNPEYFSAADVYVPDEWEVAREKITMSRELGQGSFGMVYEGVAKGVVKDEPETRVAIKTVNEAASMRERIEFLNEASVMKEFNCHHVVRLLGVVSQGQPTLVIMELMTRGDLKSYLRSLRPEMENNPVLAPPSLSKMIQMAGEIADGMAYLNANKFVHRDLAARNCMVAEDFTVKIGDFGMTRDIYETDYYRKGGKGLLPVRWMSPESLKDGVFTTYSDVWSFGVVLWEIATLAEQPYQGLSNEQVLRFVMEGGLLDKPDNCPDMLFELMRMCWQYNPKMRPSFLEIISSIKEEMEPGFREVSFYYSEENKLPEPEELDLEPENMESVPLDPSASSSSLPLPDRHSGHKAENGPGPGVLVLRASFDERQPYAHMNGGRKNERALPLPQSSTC
Sequence of Mitogen-activated protein kinase 14 (Q16539 whole entry): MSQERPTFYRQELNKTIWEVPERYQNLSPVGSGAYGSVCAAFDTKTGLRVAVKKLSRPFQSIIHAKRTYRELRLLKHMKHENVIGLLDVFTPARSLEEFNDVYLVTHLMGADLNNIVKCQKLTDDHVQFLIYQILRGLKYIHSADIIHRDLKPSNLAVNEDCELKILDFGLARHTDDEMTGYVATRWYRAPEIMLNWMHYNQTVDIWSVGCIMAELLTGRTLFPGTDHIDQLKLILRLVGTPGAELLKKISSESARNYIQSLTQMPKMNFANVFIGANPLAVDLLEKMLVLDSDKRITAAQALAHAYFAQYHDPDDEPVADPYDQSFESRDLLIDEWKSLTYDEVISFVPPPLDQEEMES

`CNc1nc(Nc2cc(C(=O)NOC)ccc2C)c(C#N)c(N(C)CC(C)(C)C)n1` had an IC50 in [1] of 64 µM.

In data set [1], `CONC(=O)c1ccc(C)c(Nc2ncnc(N(C)CC(C)(C)C)c2C#N)c1` returned an IC50 of 42 µM.

In [1], `CCn1nccc1NC(=O)c1ccc(C)c(Nc2ncnc(NC(C)C)c2C#N)c1` returned a half-inhibitory concentration (IC50) of 130 µM.

For `CONC(=O)c1ccc(C)c(Nc2nc(N3CCCN(C)CC3)nc(N(C)CC(C)(C)C)c2C#N)c1`, the IC50 in [1] amounted to 0.33 µM.

In data set [1], `Cc1ccc(C(=O)Nc2ccon2)cc1Nc1nc(N)nc(NC(C)C)c1C#N` yielded an IC50 of 18 µM. Compared with the last molecule, the IC50 is about 55-fold higher.

In turn, `Cc1ccc(C(=O)Nc2ccon2)cc1Nc1nc(N)nc(NC2CCCC2)c1C#N` had an IC50 in data set [1] of 1.5 µM.

For `CNc1ncnc(Nc2cc(C(=O)NOC)ccc2C)c1C#N`, in data set [1], the IC50 is > 250 µM.

In data set [1], `CCn1nccc1NC(=O)c1ccc(C)c(Nc2ncnc(NC3CCCC3)c2C#N)c1` showed a concentration for half-maximal inhibition (IC50) of 72 µM. In other words, the double-digit micromolar range.

For the molecule `CCn1nccc1NC(=O)c1ccc(C)c(Nc2nc(N)nc(NC3CCCC3)c2C#N)c1`, the half-inhibitory concentration (IC50) in data set [1] came to 21 µM.

Consider `Cc1ccc(C(=O)Nc2ccon2)cc1Nc1ncnc(NC(C)C)c1C#N`, for which the Metabolic rate is given as 0.012 nmol/min*mg of protein in data set [2] and 0.22 nmol/min*mg of protein in data set [4]. The same molecule had a clearance in [3] of 28.3 mL/min/kg. Moreover, the bioavailability in [5] turned out to be 100%. Moreover, the Papp in data set [6] worked out at 23.9 ×10⁻⁶ cm/s. The molecule also had an IC50 in data set [1] of 8.7 µM. In data set [7], this molecule gave a half-life of 1.7 h. In [8], this molecule returned a Control of 82%.

Regarding `CONC(=O)c1ccc(C)c(Nc2ncnc(NC3CCCC3)c2C#N)c1`, 4.1 µM corresponded to half-maximal inhibition in [1] (IC50). The inhibitory constant (Ki) in data set [9] is 0.00042 µM.

The molecule `CONC(=O)c1ccc(C)c(Nc2nc(N)nc(N(C)CC(C)(C)C)c2C#N)c1` came in with an IC50 in [1] of 17 µM.

With `CCn1nccc1NC(=O)c1ccc(C)c(Nc2nc(N)nc(NC(C)C)c2C#N)c1`, inhibition in data set [1] was half-maximal at 67 µM (IC50).

In the case of `CONC(=O)c1ccc(C)c(Nc2ncnc(NC(C)C)c2C#N)c1`, the IC50 in [1] amounted to 4.6 µM.

On to `CCCNc1ncnc(Nc2cc(C(=O)NOC)ccc2C)c1C#N`, for which the IC50 in data set [1] came to 158 µM.

`Cc1ccc(C(=O)Nc2ccon2)cc1Nc1ncnc(NC2CCCC2)c1C#N`: the half-inhibitory concentration (IC50) was 0.0041 µM in [10]; > 50 µM in data set [11]; > 50 µM in [12]; > 50 µM in data set [13]; > 10 µM in [14]; > 5 µM in data set [15]. Further, the IC50 is > 30 µM in data set [16]; > 50 µM in [17]; > 30 µM in data set [18]; > 50 µM in data set [19]; > 50 µM in [20]; > 50 µM in data set [21]. For the same molecule, the IC50 in data set [22] is > 50 µM; in [23], > 30 µM; in [24], > 30 µM; in [1], 3.5 µM; in [25] it was > 50 µM; in data set [26], > 50 µM. Moreover, the IC50 is > 50 µM in data set [27]; > 100 µM in data set [28]; > 50 µM in data set [29]; > 50 µM in data set [30]; > 25 µM in data set [31]; < 0.1 µM in data set [32].

The term IC50 denotes the concentration at which inhibition is half-maximal. Low values mean greater potency in that assay, high ones weaker potency in that assay. By clearance is commonly meant the volume of plasma or blood freed of the substance per unit of time. Broadly, the bioavailability is the share of a dose that reaches the circulation, judged against a reference dose that is usually intravenous. Read a low bioavailability as poor availability. As a reminder, the half-life is how long it takes for the measured level to halve. Read a high half-life as slow decline. What is called Ki is the dissociation constant of the complex between target and ligand, obtained from inhibition or displacement.

(Values after ChEMBL document CHEMBL1141103, “5-Cyanopyrimidine derivatives as a novel class of potent, selective, and orally active inhibitors of p38alpha MAP kinase” (J Med Chem, 2005).)
